Results on 25 molecules are retold here after the NIST ThermoML archive (doi:10.1016/j.jct.2008.12.018).

Numbers after ± are expanded uncertainties.

The data set can be described thus: activity coefficient (dimensionless); of the first substance listed, at infinite dilution; xn = mol fraction of the nth substance listed. Conditions: Liquid, Chromatography, x1 = 0.

With `Cc1ccccc1C` [1,2-dimethylbenzene] + CCCCn1cc[n+](C)c1.N#C[S-], the activity coefficient was found to be 4.58 ± 0.31 (298.15 K); 4.64 ± 0.32 (308.15 K); 4.71 ± 0.32 (318.15 K); 4.69 ± 0.32 (328.15 K); 4.71 ± 0.32 (338.15 K); 4.75 ± 0.32 (348.15 K). Besides, the activity coefficient by setting is: (358.15 K) 4.78 ± 0.33; (368.15 K) 4.81 ± 0.33.
As for `Cc1cccc(C)c1` [1,3-dimethylbenzene] + CCCCn1cc[n+](C)c1.N#C[S-], the activity coefficient by setting is: (298.15 K) 5.92 ± 0.4; (308.15 K) 5.91 ± 0.4; (318.15 K) 5.98 ± 0.41; (328.15 K) 5.96 ± 0.41; (338.15 K) 5.96 ± 0.41; (348.15 K) 5.97 ± 0.41. Moreover, the activity coefficient runs as follows: (358.15 K) 5.99 ± 0.41; (368.15 K) 5.96 ± 0.41.
Turning to `Cc1ccc(C)cc1` [1,4-dimethylbenzene] + CCCCn1cc[n+](C)c1.N#C[S-], the activity coefficient reads like this: (298.15 K) 5.51 ± 0.38; (308.15 K) 5.54 ± 0.38; (318.15 K) 5.59 ± 0.38; (328.15 K) 5.6 ± 0.38; (338.15 K) 5.63 ± 0.38; (348.15 K) 5.68 ± 0.39. The activity coefficient (358.15 K) is 5.72 ± 0.39 and the activity coefficient (368.15 K) was found to be 5.75 ± 0.39.
On to `C=CCCCCC` [1-heptene] + CCCCn1cc[n+](C)c1.N#C[S-], for which the activity coefficient runs as follows: (298.15 K) 81.1 ± 5.6; (308.15 K) 73.7 ± 5.1; (318.15 K) 68.5 ± 4.7; (328.15 K) 62.3 ± 4.3; (338.15 K) 58 ± 4; (348.15 K) 54.8 ± 3.8. Further, the activity coefficient (358.15 K) turned out to be 52.4 ± 3.6.
Consider `C#CCCCCC` [1-heptyne] + CCCCn1cc[n+](C)c1.N#C[S-], for which the activity coefficient runs as follows: (298.15 K) 9.88 ± 0.67; (308.15 K) 9.92 ± 0.68; (318.15 K) 10.1 ± 0.69; (328.15 K) 10.2 ± 0.7; (338.15 K) 10.2 ± 0.7; (348.15 K) 10.3 ± 0.7. Under “358.15 K”, the activity coefficient came out at 10.4 ± 0.71.
As for `C#CCCCC` [1-hexyne] + CCCCn1cc[n+](C)c1.N#C[S-], the activity coefficient (298.15 K) was 6.42 ± 0.44; the activity coefficient (308.15 K) was found to be 6.45 ± 0.44; the activity coefficient (318.15 K) is 6.59 ± 0.45; the activity coefficient (328.15 K) turned out to be 6.65 ± 0.45; the activity coefficient (338.15 K) was found to be 6.76 ± 0.46; the activity coefficient (348.15 K) worked out at 6.87 ± 0.47. Further, the activity coefficient (358.15 K) was found to be 6.95 ± 0.47.
Take `C#CCCCCCC` [1-octyne] + CCCCn1cc[n+](C)c1.N#C[S-]: the activity coefficient worked out at 15.2 ± 1 (298.15 K); 15.1 ± 1 (308.15 K); 15.4 ± 1.1 (318.15 K); 15.3 ± 1 (328.15 K); 15.3 ± 1 (338.15 K); 15.3 ± 1 (348.15 K). In addition, the activity coefficient (358.15 K) worked out at 15.3 ± 1.
Regarding `C=CCCC` [1-pentene] + CCCCn1cc[n+](C)c1.N#C[S-], the activity coefficient is 52.3 ± 3.6 (298.15 K); 46.4 ± 3.2 (308.15 K); 41.5 ± 2.8 (318.15 K); 35.4 ± 2.4 (328.15 K); 32.6 ± 2.2 (338.15 K); 30.6 ± 2.1 (348.15 K). Moreover, the activity coefficient (358.15 K) was found to be 27.6 ± 1.9.
Take `C#CCCC` [1-pentyne] + CCCCn1cc[n+](C)c1.N#C[S-]: the activity coefficient runs as follows: (298.15 K) 4.6 ± 0.31; (308.15 K) 4.68 ± 0.32; (318.15 K) 4.71 ± 0.32; (328.15 K) 4.73 ± 0.32; (338.15 K) 4.79 ± 0.33; (348.15 K) 4.85 ± 0.33. Further, under “358.15 K”, the activity coefficient is 4.97 ± 0.34.
As for `COC(C)(C)C` [2-methoxy-2-methylpropane] + CCCCn1cc[n+](C)c1.N#C[S-], the activity coefficient is, setting by setting: (298.15 K) 12.8 ± 0.59; (308.15 K) 12.4 ± 0.57; (318.15 K) 11.9 ± 0.55; (328.15 K) 11.4 ± 0.52; (338.15 K) 11.1 ± 0.51; (348.15 K) 10.7 ± 0.49. In addition, the activity coefficient (358.15 K) was determined as 10.6 ± 0.49.
With `c1ccccc1` [benzene] + CCCCn1cc[n+](C)c1.N#C[S-], the activity coefficient came to 2.13 ± 0.14 (298.15 K); 2.15 ± 0.15 (308.15 K); 2.17 ± 0.15 (318.15 K); 2.18 ± 0.15 (328.15 K); 2.2 ± 0.15 (338.15 K); 2.22 ± 0.15 (348.15 K). Moreover, the activity coefficient worked out at 2.25 ± 0.15 (358.15 K) and 2.27 ± 0.15 (368.15 K).
`CCCCO` [butan-1-ol] + CCCCn1cc[n+](C)c1.N#C[S-]: the activity coefficient runs as follows: (308.15 K) 1.32 ± 0.09; (318.15 K) 1.25 ± 0.08; (328.15 K) 1.21 ± 0.08; (338.15 K) 1.16 ± 0.07; (348.15 K) 1.13 ± 0.07; (358.15 K) 1.1 ± 0.07. Where the note is “368.15 K”, the activity coefficient was determined as 1.08 ± 0.07.
For `C1CCCCCC1` [cycloheptane] + CCCCn1cc[n+](C)c1.N#C[S-], the activity coefficient (298.15 K) amounted to 56.6 ± 3.9; the activity coefficient (308.15 K) turned out to be 51 ± 3.5; the activity coefficient (318.15 K) is 46.5 ± 3.2; the activity coefficient (328.15 K) amounted to 42 ± 2.9; the activity coefficient (338.15 K) worked out at 38.9 ± 2.7; the activity coefficient (348.15 K) was 36.1 ± 2.5. Further, the activity coefficient (358.15 K) was found to be 33.7 ± 2.3.
Turning to `C1CCCCC1` [cyclohexane] + CCCCn1cc[n+](C)c1.N#C[S-], the activity coefficient was 62.3 ± 4.3 (298.15 K); 53.5 ± 3.7 (308.15 K); 47.1 ± 3.2 (318.15 K); 41.1 ± 2.8 (328.15 K); 36.8 ± 2.5 (338.15 K); 33.5 ± 2.3 (348.15 K). For the same molecule, the activity coefficient (358.15 K) is 31.1 ± 2.1.
For `C1CCCCCCC1` [cyclooctane] + CCCCn1cc[n+](C)c1.N#C[S-], the activity coefficient amounted to 70 ± 4.8 (298.15 K); 63.1 ± 4.3 (308.15 K); 57.8 ± 4 (318.15 K); 53.2 ± 3.6 (328.15 K); 48.6 ± 3.3 (338.15 K); 45 ± 3.1 (348.15 K). In addition, the activity coefficient (358.15 K) came to 41.9 ± 2.9.
On to `C1CCCC1` [cyclopentane] + CCCCn1cc[n+](C)c1.N#C[S-], for which the activity coefficient worked out at 46.9 ± 3.2 (298.15 K); 39.7 ± 2.7 (308.15 K); 34.9 ± 2.4 (318.15 K); 30 ± 2.1 (328.15 K); 26.8 ± 1.8 (338.15 K); 24.2 ± 1.7 (348.15 K). The activity coefficient (358.15 K) was found to be 23.1 ± 1.6.
For `CCCCCCCCCC` [decane] + CCCCn1cc[n+](C)c1.N#C[S-], the activity coefficient is, setting by setting: (298.15 K) 628 ± 43; (308.15 K) 581 ± 40; (318.15 K) 533 ± 26; (328.15 K) 470 ± 23; (338.15 K) 426 ± 20; (348.15 K) 386 ± 19. Moreover, the activity coefficient (358.15 K) amounted to 351 ± 17.
Take `CCO` [ethanol] + CCCCn1cc[n+](C)c1.N#C[S-]: the activity coefficient reads like this: (298.15 K) 0.743 ± 0.049; (308.15 K) 0.709 ± 0.047; (318.15 K) 0.69 ± 0.046; (328.15 K) 0.671 ± 0.045; (338.15 K) 0.655 ± 0.045; (348.15 K) 0.643 ± 0.044. Further, the activity coefficient was 0.631 ± 0.044 (358.15 K) and 0.623 ± 0.043 (368.15 K).
As for `CCc1ccccc1` [ethylbenzene] + CCCCn1cc[n+](C)c1.N#C[S-], the activity coefficient by setting is: (298.15 K) 5.86 ± 0.4; (308.15 K) 5.9 ± 0.4; (318.15 K) 5.93 ± 0.4; (328.15 K) 5.86 ± 0.4; (338.15 K) 5.93 ± 0.4; (348.15 K) 5.83 ± 0.4. Besides, the activity coefficient runs as follows: (358.15 K) 5.82 ± 0.4; (368.15 K) 5.81 ± 0.4.
As for `CCCCCCC` [heptane] + CCCCn1cc[n+](C)c1.N#C[S-], the activity coefficient runs as follows: (298.15 K) 281 ± 19; (308.15 K) 245 ± 17; (318.15 K) 213 ± 15; (328.15 K) 183 ± 13; (338.15 K) 162 ± 11; (348.15 K) 146 ± 10. For the same molecule, under “358.15 K”, the activity coefficient turned out to be 132 ± 9.
As for `C=CCCCC` [hex-1-ene] + CCCCn1cc[n+](C)c1.N#C[S-], the activity coefficient runs as follows: (298.15 K) 61.6 ± 4.2; (308.15 K) 54.8 ± 3.8; (318.15 K) 50.2 ± 3.4; (328.15 K) 44.9 ± 3.1; (338.15 K) 41.4 ± 2.8; (348.15 K) 38.3 ± 2.6. Also, the activity coefficient (358.15 K) was 36.4 ± 2.5.
With `CCCCCC` [hexane] + CCCCn1cc[n+](C)c1.N#C[S-], the activity coefficient turned out to be 226 ± 16 (298.15 K); 189 ± 13 (308.15 K); 167 ± 11 (318.15 K); 143 ± 10 (328.15 K); 126 ± 9 (338.15 K); 108 ± 7 (348.15 K). Where the note is “358.15 K”, the activity coefficient turned out to be 100 ± 7.
`CO` [methanol] + CCCCn1cc[n+](C)c1.N#C[S-]: the activity coefficient (298.15 K) is 0.416 ± 0.035; the activity coefficient (308.15 K) came out at 0.396 ± 0.034; the activity coefficient (318.15 K) came out at 0.396 ± 0.034; the activity coefficient (328.15 K) worked out at 0.391 ± 0.034; the activity coefficient (338.15 K) amounted to 0.387 ± 0.034; the activity coefficient (348.15 K) is 0.386 ± 0.033. Further, the activity coefficient (358.15 K) was determined as 0.383 ± 0.033 and the activity coefficient (368.15 K) is 0.382 ± 0.033.
As to `CCCCCCCCC` [nonane] + CCCCn1cc[n+](C)c1.N#C[S-], the activity coefficient reads like this: (298.15 K) 459 ± 32; (308.15 K) 414 ± 28; (318.15 K) 376 ± 26; (328.15 K) 332 ± 23; (338.15 K) 298 ± 20; (348.15 K) 272 ± 19. The activity coefficient (358.15 K) was 252 ± 17.
In the case of `C=CCCCCCC` [oct-1-ene] + CCCCn1cc[n+](C)c1.N#C[S-], the activity coefficient is 111 ± 8 (298.15 K); 102 ± 7 (308.15 K); 96.3 ± 6.6 (318.15 K); 88.1 ± 6 (328.15 K); 82.5 ± 5.7 (338.15 K); 77.6 ± 5.3 (348.15 K). Moreover, the activity coefficient (358.15 K) stood at 73.8 ± 5.1.
